Counter-ions that a name gives are not always drawn. Like-named read-outs stand apart in the source and are kept apart here.
Columns and labels:
Parameters in all cases: species or system AML cell lines (8); Primary HTS, single concentration about 10 uM, Cell Titer Glo viability; log10 luminescence, per cent inhibition relative to cycloheximide control
Settings in all cases: 72 h, relative to cycloheximide control, log10 luminescence, inhibitor
MOLM-13 = tested on: MOLM-13
CMK = tested on: CMK
CHRF288-11 = tested on: CHRF288-11
ML-2 = tested on: ML-2
CMS = tested on: CMS
M07e = tested on: M07e
MV4-11 = tested on: MV4-11
U937 = tested on: U937

SMILES	MOLM-13 %inh (MOLM-13; MOLM-13 %inh, 10 µM)	CMK %inh (CMK; CMK %inh, 10 µM)	CHRF288-11 %inh (CHRF288-11; CHRF288-11 %inh, 10 µM)	ML-2 %inh (ML-2; ML-2 %inh, 10 µM)	CMS %inh (CMS; CMS %inh, 10 µM)	M07e %inh (M07e; M07e %inh, 10 µM)	MV4-11 %inh (MV4-11; MV4-11 %inh, 10 µM)	U937 %inh (U937; U937 %inh, 10 µM)	MOLM-13 %inh (MOLM-13)	CMK %inh (CMK)	CHRF288-11 %inh (CHRF288-11)	ML-2 %inh (ML-2)	CMS %inh (CMS)	M07e %inh (M07e)	MV4-11 %inh (MV4-11)	U937 %inh (U937)
C[C@H](CS)C(=O)N1CCC[C@H]1C(=O)O [SJ000286908-8, CAPTOPRIL]	0.1339%	0.6591%	4.869%	-1.462%	-1.291%	-2.045%	-2.616%	-1.359%	–	–	–	–	–	–	–	–
C[C@H](CS)C(=O)N1CCC[C@H]1C(=O)O [SJ000286908-9, CAPTOPRIL]	-1.689%	-4.021%	-5.11%	-0.6374%	0.9516%	0.8569%	1.577%	-2.673%	–	–	–	–	–	–	–	–
C[C@H](CS)C(=O)N1CCC[C@H]1C(=O)O [SJ000286908-10, CAPTOPRIL]	0.8092%	3.343%	-3.972%	-0.772%	-3.33%	-1.533%	-0.07613%	51.26%	–	–	–	–	–	–	–	–
C[C@H](CS)C(=O)N1CCC[C@H]1C(=O)O [SJ000286908-11, CAPTOPRIL]	1.337%	-6.202%	-3.474%	-1.011%	-1.329%	0.3888%	-2.697%	-18.23%	–	–	–	–	–	–	–	–
C[C@H](CCC(=O)O)[C@H]1CC[C@H]2[C@@H]3CC[C@@H]4C[C@H](O)CC[C@]4(C)[C@H]3CC[C@]12C [SJ000286918-3, LITHOCHOLIC ACID]	–	–	–	–	–	–	–	–	2.496%	-0.09844%	7.532%	1.903%	2.61%	1.09%	1.619%	0.7056%
CC1(C)O[C@@H]2C[C@H]3[C@@H]4CCC5=CC(=O)CC[C@]5(C)[C@@]4(F)[C@@H](O)C[C@]3(C)[C@]2(C(=O)CCl)O1 [SJ000286948-3, HALCINONIDE]	–	–	–	–	–	–	–	–	15.68%	7.614%	0.4115%	2.814%	6.83%	-3.04%	4.793%	10.5%
CCCC(CCC)C(=O)O [SJ000287008-5, VALPROATE SODIUM | VALPROIC ACID SODIUM | DIVALPROEX SODIUM | SODIUM VALPROATE | ABBOTT-44090 | NIK-313 | NIK-317 | VALPROATE SODIUM | VALPROIC ACID SODIUM SALT | | SODIUM VALPROATE | VALPROATE SODIUM | VALPROIC ACID SODIUM SALT | ABBOTT-44090 | NIK-313 | NIK-317 | | SODIUM VALPROATE | VALPROIC ACID SODIUM SALT (SODIUM VALPROATE)]	-1.216%	-3.296%	8.896%	0.7854%	1.675%	-4.206%	-0.02212%	-1.54%	–	–	–	–	–	–	–	–
CCCC(CCC)C(=O)O [SJ000287008-6, VALPROATE SODIUM | VALPROIC ACID SODIUM | DIVALPROEX SODIUM | SODIUM VALPROATE | ABBOTT-44090 | NIK-313 | NIK-317 | VALPROATE SODIUM | VALPROIC ACID SODIUM SALT | | SODIUM VALPROATE | VALPROATE SODIUM | VALPROIC ACID SODIUM SALT | ABBOTT-44090 | NIK-313 | NIK-317 | | SODIUM VALPROATE | VALPROIC ACID SODIUM SALT (SODIUM VALPROATE)]	-2.019%	-3.672%	0.5614%	-1.422%	-1.126%	-0.5439%	-1.147%	-3.41%	–	–	–	–	–	–	–	–
CC1(C)O[C@@H]2C[C@H]3[C@@H]4C[C@H](F)C5=CC(=O)C=C[C@]5(C)[C@@]4(F)[C@@H](O)C[C@]3(C)[C@]2(C(=O)CO)O1 [SJ000287016-2, FLUOCINOLONE ACETONIDE]	–	–	–	–	–	–	–	–	1.204%	-1.286%	4.658%	2.188%	9.034%	-0.198%	1.404%	7.141%

— publication PMC6522510 (Nature Communications, 2019)
